Assays:
[1] = tested on: Erysiphe graminis; assay: Test for preventive effect on wheat powdery mildew; assay type: in vivo; settings: wheat (Norin-61-go) seedlings, 500 ppm active ingredient, preventive treatment; diseased area of first leaves 10 days after inoculation with Erysiphe graminis
Procedure, shortened: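 Wheat seedlings (Norin-61-go), grown 8 days, were sprayed with wettable-powder solutions at 500 ppm active ingredient, air-dried, then inoculated by sprinkling Erysiphe graminis spores. Plants were kept at 20-25° C. Diseased area on first leaves was scored 10 days post-inoculation against a rating standard.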

## COc1nc(OC)nc(-n2c(C(F)(F)F)nc3cc(C)ccc32)n1 [Compound I-312, 1-(4,6-dimethoxy-[1,3,5]triazin-2-yl)-5-methyl-2-trifluoromethylbenzimidazole]
[1]
  Biological effectiveness: A (No diseased area)
other
  melting point: 137 to 140 °C

## COc1nc(OC)nc(-n2c(Cl)nc3cc(Cl)ccc32)n1 [Compound I-277, 2,5-dichloro-1-(4,6-dimethoxy-[1,3,5]triazin-2-yl)benzimidazole]
[1]
  Biological effectiveness: B (Diseased area of less than 25%)
other
  melting point: 146 to 149 °C

## COc1ccnc(-n2cnc3ccccc32)n1 [Compound I-667, 1-(4-methoxypyrimidin-2-yl)-benzimidazole]
[1]
  Biological effectiveness: B (Diseased area of less than 25%)
other
  melting point: 114 to 116 °C

## COc1cc(OC)nc(-n2c(SC)nc3ccccc32)n1 [Compound I-4, 1-(4,6-dimethoxypyrimidin-2-yl)-2-methylthiobenzimidazole]
other
  melting point: 135 to 137 °C

## COc1cc(OC)nc(-n2c(C)nc3cc(C)ccc32)n1 [Compound I-186, 1-(4,6-dimethoxypyrimidin-2-yl)-2,5-dimethylbenzimidazole]
[1]
  Biological effectiveness: A (No diseased area)
other
  melting point: 163 to 166 °C

## COc1cc(OC)nc(-n2c(N)nc3cc(C)ccc32)n1 [Compound I-362, 2-amino-1-(4,6-dimethoxypyrimidin-2-yl)-5-methylbenzimidazole]
[1]
  Biological effectiveness: A (No diseased area)
other
  melting point: > 300 °C

## COc1cc(OC)nc(-n2c(S(C)(=O)=O)nc3ccccc32)n1 [Compound I-5, 1-(4,6-dimethoxypyrimidin-2-yl)-2-methylsulfonylbenzimidazole]
other
  melting point: 114 to 117 °C

## COc1cc(OC)nc(-n2c(C(F)(F)F)nc3cc(C)ccc32)n1 [Compound I-298, 1-(4,6-dimethoxypyrimidin-2-yl)-5-methyl-2-trifluoromethylbenzimidazole]
[1]
  Biological effectiveness: A (No diseased area)
other
  melting point: 93 to 96 °C

## CSc1nc(SC)nc(-n2c(C)nc3ccccc32)n1 [Compound I-1042, 1-(4,6-dimethylthio-[1,3,5]triazin-2-yl)-2-methylbenzimidazole]
other
  melting point: 176 to 179 °C

## COc1cc(OC)nc(-n2c(OC)nc3ccccc32)n1 [Compound I-18, 1-(4,6-dimethoxypyrimidin-2-yl)-2-methoxybenzimidazole]
other
  melting point: 121 to 122 °C

## COc1nc(OC)nc(-n2c(C)nc3cc(Cl)ccc32)n1 [Compound I-215, 5-chloro-1-(4,6-dimethoxy-[1,3,5]triazin-2-yl)-2-methylbenzimidazole]
[1]
  Biological effectiveness: A (No diseased area)
other
  melting point: 173 to 176 °C

## COc1nc(OC)nc(-n2c(N)nc3cc(Cl)ccc32)n1 [Compound I-368, 2-amino-5-chloro-1-(4,6-dimethoxy-[1,3,5]triazin-2-yl)benzimidazole]
[1]
  Biological effectiveness: B (Diseased area of less than 25%)
other
  melting point: 293 to 296 °C

## CNc1nc2cc(Cl)ccc2n1-c1nc(OC)nc(OC)n1 [Compound I-375]
[1]
  Biological effectiveness: A (No diseased area)

## CCc1cc(CC)nc(-n2cnc3ccccc32)n1 [Compound I-1093]
[1]
  Biological effectiveness: A (No diseased area)

## COc1nc(OC)nc(-n2c(-c3ccccc3)nc3cc(Cl)ccc32)n1 [Compound I-378]
[1]
  Biological effectiveness: A (No diseased area)

## COc1nc(OC)nc(-n2c(C(Cl)(Cl)Cl)nc3cc(C)ccc32)n1 [Compound I-406]
[1]
  Biological effectiveness: A (No diseased area)

## Cc1nc2cc(Cl)ccc2n1-c1nc(N(C)C)nc(N(C)C)n1 [Compound I-1071]
[1]
  Biological effectiveness: A (No diseased area)

## Cc1nc2ccccc2n1-c1nc(Cl)nc(Cl)n1 [Compound I-1066, 1-(4,6-dichloro-[1,3,5]triazin-2-yl)-2-methylbenzimidazole]
other
  melting point: > 300 °C

## COc1cc(OC)nc(-n2c(Cl)nc3cc(C)ccc32)n1 [Compound I-258, 2-chloro-1-(4,6-dimethoxypyrimidin-2-yl)-5-methylbenzimidazole]
[1]
  Biological effectiveness: A (No diseased area)
other
  melting point: 145 to 148 °C

## CCOc1ccc2c(c1)nc(Cl)n2-c1nc(OC)cc(OC)n1 [Compound I-261]
[1]
  Biological effectiveness: B (Diseased area of less than 25%)

## CCOc1cc(C)nc(-n2cnc3cc(C)ccc32)n1 [Compound I-772]
[1]
  Biological effectiveness: A (No diseased area)

## CCCc1nc(OC)nc(-n2c(C(F)(F)F)nc3cc(C)ccc32)n1 [Compound I-1004]
[1]
  Biological effectiveness: A (No diseased area)

## COc1nc(OC)nc(-n2c(C)nc3cc(OC(F)(F)F)ccc32)n1 [Compound I-229]
[1]
  Biological effectiveness: A (No diseased area)

## CCc1ccc2c(c1)nc(C(F)(F)F)n2-c1nc(OC)nc(OC)n1 [Compound I-313]
[1]
  Biological effectiveness: A (No diseased area)

## COc1cc(OC)nc(-n2c(C)nc3cc(C(F)(F)F)ccc32)n1 [Compound I-188]
[1]
  Biological effectiveness: A (No diseased area)

## CCOc1cc(C)nc(-n2c(Cl)nc3ccccc32)n1 [Compound I-771]
[1]
  Biological effectiveness: A (No diseased area)

## Cc1cc(C2CC2)nc(-n2c(C)nc3ccc(Cl)cc32)n1 [Compound I-1106]
[1]
  Biological effectiveness: B (Diseased area of less than 25%)

## CCOc1ccnc(-n2c(C)nc3cc(C)ccc32)n1 [Compound I-695]
[1]
  Biological effectiveness: A (No diseased area)

## CCCc1cc(OC)nc(-n2cnc3cc(C)ccc32)n1 [Compound I-962]
[1]
  Biological effectiveness: A (No diseased area)

Reference: patent US6872729B2, “Pyrimidinylbenzimidazole and triazinylbenzimidazole derivatives and agricultural/horticultural fungicides” (Kumiai Chemical Industry Co., Ltd., priority 1998, dated 2005)
